The values that follow come from patent US10208089B2, “Modulation of complement activity” (priority 2014, dated 2019).

The assay concerns the target C5 (Homo sapiens, UniProt P01031). The assay is described as follows: Human hemolysis assay (RBC lysis assay using complete human sera). It is filed as cell-based. Set-up: with complete human sera (Complement Technology, Tyler Tex.) and polypeptides; tissue Complement Technology, Tyler Tex; host or cells: complete human serum.
[1] abbreviates: inhibition of lysis of antibody-sensitized sheep erythrocytes, complete human sera.
The mark [2] stands for this setting: C-terminally truncated polypeptide variants of R3021, inhibition of red blood cell lysis.

The structures appear in SMILES notation. pIC50: −log10 of the molar value. Starred links: 1 amine or outer side, 2 acyl side, 3 side chain; linkers in the order of their positions; H or OH if unused. Positions of bridges follow the written chain, without caps; N, C: chain ends. Non-standard residues stand in square brackets, D forms with d. Residues, ends and D or L forms follow the SMILES beside them. Ala(1H-tetrazol-5-yl) = N[C@@H](Cc1nnn[nH]1)C(=O)O; Trp(7-aza) = N[C@@H](Cc1c[nH]c2ncccc12)C(=O)O; NMePhe(4-F) = CN[C@@H](Cc1ccc(F)cc1)C(=O)O; mXylylene = c1cc(C[*:1])cc(C[*:2])c1; Phg = N[C@H](C(=O)O)c1ccccc1; Tle = CC(C)(C)[C@H](N)C(=O)O; NMeS = CN[C@@H](CO)C(=O)O; Nva = CCC[C@H](N)C(=O)O; Sar = CNCC(=O)O

Sequence of C5 (P01031 19-1676): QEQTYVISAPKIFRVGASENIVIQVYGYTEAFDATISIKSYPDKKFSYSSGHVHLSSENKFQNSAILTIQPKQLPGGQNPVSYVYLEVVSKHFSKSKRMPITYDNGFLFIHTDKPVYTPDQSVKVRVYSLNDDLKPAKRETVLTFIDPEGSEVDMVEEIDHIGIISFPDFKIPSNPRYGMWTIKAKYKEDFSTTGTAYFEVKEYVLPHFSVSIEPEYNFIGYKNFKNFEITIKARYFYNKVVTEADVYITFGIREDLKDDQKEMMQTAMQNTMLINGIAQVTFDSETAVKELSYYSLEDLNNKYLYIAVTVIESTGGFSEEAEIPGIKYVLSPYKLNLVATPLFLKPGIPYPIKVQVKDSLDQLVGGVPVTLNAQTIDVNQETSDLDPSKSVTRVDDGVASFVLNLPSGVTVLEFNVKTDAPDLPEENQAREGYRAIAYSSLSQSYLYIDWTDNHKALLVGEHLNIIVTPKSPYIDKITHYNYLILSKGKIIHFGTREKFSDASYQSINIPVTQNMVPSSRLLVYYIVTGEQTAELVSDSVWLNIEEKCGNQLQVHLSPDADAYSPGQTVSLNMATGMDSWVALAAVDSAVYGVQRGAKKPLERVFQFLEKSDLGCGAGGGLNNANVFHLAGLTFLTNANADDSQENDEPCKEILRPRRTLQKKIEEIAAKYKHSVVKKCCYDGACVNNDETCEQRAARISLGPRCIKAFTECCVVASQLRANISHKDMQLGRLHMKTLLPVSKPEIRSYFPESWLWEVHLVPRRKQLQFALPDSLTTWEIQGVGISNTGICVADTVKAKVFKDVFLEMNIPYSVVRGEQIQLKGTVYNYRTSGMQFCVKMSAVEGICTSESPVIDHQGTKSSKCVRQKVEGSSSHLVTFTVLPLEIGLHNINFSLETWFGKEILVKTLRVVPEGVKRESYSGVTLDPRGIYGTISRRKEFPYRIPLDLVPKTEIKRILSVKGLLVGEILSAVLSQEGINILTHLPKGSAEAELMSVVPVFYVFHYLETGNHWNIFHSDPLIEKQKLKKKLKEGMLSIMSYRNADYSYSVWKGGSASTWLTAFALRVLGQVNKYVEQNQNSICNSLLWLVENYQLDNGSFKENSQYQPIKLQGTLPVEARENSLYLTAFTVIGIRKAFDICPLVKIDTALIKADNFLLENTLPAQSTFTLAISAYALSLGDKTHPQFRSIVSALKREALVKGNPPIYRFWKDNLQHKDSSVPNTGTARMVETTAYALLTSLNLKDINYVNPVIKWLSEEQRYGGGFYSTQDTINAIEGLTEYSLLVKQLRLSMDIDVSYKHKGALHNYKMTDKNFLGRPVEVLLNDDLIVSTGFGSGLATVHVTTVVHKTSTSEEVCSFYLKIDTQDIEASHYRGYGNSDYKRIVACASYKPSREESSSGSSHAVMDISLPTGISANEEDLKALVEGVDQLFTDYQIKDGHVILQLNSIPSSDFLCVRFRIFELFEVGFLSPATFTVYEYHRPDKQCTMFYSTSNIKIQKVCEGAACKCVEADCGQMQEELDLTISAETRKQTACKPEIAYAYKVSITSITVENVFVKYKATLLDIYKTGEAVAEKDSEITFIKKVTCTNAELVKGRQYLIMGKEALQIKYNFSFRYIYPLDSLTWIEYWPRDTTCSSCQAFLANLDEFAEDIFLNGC

As for `CC(=O)N[C@H]1CSCc2cccc(c2)CSC[C@@H](C(N)=O)NC(=O)[C@H](Cc2c[nH]cn2)NC(=O)[C@H](CO)N(C)C(=O)[C@H](Cc2ccc(O)cc2)NC(=O)[C@H](CCC(=O)O)NC(=O)[C@H](Cc2c[nH]c3ncccc23)NC(=O)[C@H](Cc2ccc(O)cc2)NC(=O)[C@H](C(C)(C)C)NC1=O` [Compound R3016, [mXylyl(1,9)]Ac-C-Tbg-Y-azaTrp-E-Y-(N-Me)S-H-C-NH2] (Ac-C[Tle]Y[Trp(7-aza)]EY[NMeS]HC-NH2; linker 1-9 via mXylylene), the pIC50 – broadly, −log10 of the IC50, conventionally taken in molar units – under setting [1] is below 4.89.
Consider `CCC[C@H](N)C(=O)N[C@H]1CSCc2cccc(c2)CSC[C@@H](C(N)=O)NC(=O)CN(C)C(=O)[C@H](Cc2ccc(F)cc2)N(C)C(=O)[C@H](Cc2c[nH]cn2)NC(=O)[C@H](CO)N(C)C(=O)[C@H](Cc2ccc(F)cc2)N(C)C(=O)[C@H](c2ccccc2)NC(=O)[C@H](CO)N(C)C(=O)[C@H](Cc2ccc(O)cc2)NC1=O` [Compound R3051, [mXylyl(2,11)]Nvl-C-Y-(N-Me)S-Phg-(N-Me-4-F)Phe-(N-Me)S-H-(N-Me-4-F)-Phe-(N-Me)G-C-NH2] (H-[Nva]CY[NMeS][Phg][NMePhe(4-F)][NMeS]H[NMePhe(4-F)][Sar]C-NH2; linker 2-11 via mXylylene), for which the pIC50 under setting [1] is below 4.00.
Consider `CCC[C@H](NC(=O)[C@@H]1CSCc2cccc(c2)CSC[C@H](NC(=O)[C@H](C)NC(C)=O)C(=O)N[C@@H](c2ccccc2)C(=O)N[C@@H]([C@@H](C)O)C(=O)N[C@@H](Cc2c[nH]c3ncccc23)C(=O)N[C@@H](CCC(=O)O)C(=O)N[C@@H](Cc2ccc(O)cc2)C(=O)N(C)[C@@H](CO)C(=O)N[C@@H](Cc2c[nH]cn2)C(=O)N1)C(N)=O` [Compound R3031, [mXylyl(2,10)]Ac-A-C-Phg-T-azaTrp-E-Y-(N-Me)S-H-C-Nvl-NH2] (Ac-AC[Phg]T[Trp(7-aza)]EY[NMeS]HC[Nva]-NH2; linker 2-10 via mXylylene), for which, under setting [1], the pIC50 is 5.96.
For the compound `CSCC[C@H](N)C(=O)N[C@H]1CSCc2cccc(c2)CSC[C@@H](C(N)=O)NC(=O)[C@H](Cc2ccccc2)NC(=O)[C@H](CCCNC(=N)N)NC(=O)[C@H](CCC(=O)O)NC(=O)[C@H](C(C)C)NC1=O` [Compound R3047, [mXylyl(2,7)]M-C-V-E-R-F-C-NH2] (H-MCVERFC-NH2; linker 2-7 via mXylylene), the pIC50 is, setting by setting: under setting [2], below 4.00; under setting [1], below 4.00.
With `CCC[C@H](NC(=O)[C@@H](NC(=O)[C@@H]1CCCN1C(=O)[C@H](Cc1ccc(O)cc1)NC(=O)[C@H](CCC(=O)O)NC(=O)[C@H](Cc1c[nH]c2ncccc12)NC(=O)[C@H](Cc1ccc(O)cc1)NC(=O)[C@@H](NC(=O)[C@H](CC(=O)O)N(C)C(=O)[C@@H]1CSCc2cccc(c2)CSC[C@H](NC(C)=O)C(=O)N[C@@H](C(C)C)C(=O)N[C@@H](CCC(=O)O)C(=O)N[C@@H](CCCNC(=N)N)C(=O)N[C@@H](Cc2ccccc2)C(=O)N1)C(C)(C)C)C1CCCCC1)C(N)=O` [Compound R3172, [mXylyl(1,6)]Ac-C-V-E-R-F-C-(N-Me)D-Tbg-Y-azaTrp-E-Y-P-Chg-Nvl-NH2], under setting [1], the pIC50 was 7.92.
`CSCC[C@H](N)C(=O)N[C@H]1CSCc2cccc(c2)CSC[C@@H](C(=O)N[C@@H](CC(=O)O)C(=O)N[C@H](C(=O)N[C@@H](Cc2ccc(O)cc2)C(N)=O)C(C)C)NC(=O)[C@H](Cc2ccccc2)NC(=O)[C@H](CCCNC(=N)N)NC(=O)[C@H](CCC(=O)O)NC(=O)[C@H](C(C)C)NC1=O` [Compound R3045, [mXylyl(2,7)]M-C-V-E-R-F-C-D-V-Y-NH2] (H-MCVERFCDVY-NH2; linker 2-7 via mXylylene): the pIC50 is below 4.00 under setting [2] and below 4.00 under setting [1].
Take `CCC[C@H](NC(=O)[C@@H]1CSCc2cccc(c2)CSC[C@H](NC(=O)[C@H](CCC)NC(=O)[C@H](Cc2ccc(O)cc2)NC(C)=O)C(=O)N[C@@H](c2ccccc2)C(=O)N[C@@H]([C@@H](C)O)C(=O)N[C@@H](Cc2c[nH]c3ncccc23)C(=O)N[C@@H](CCC(=O)O)C(=O)N[C@@H](Cc2ccc(O)cc2)C(=O)N(C)[C@@H](CO)C(=O)N[C@@H](Cc2c[nH]cn2)C(=O)N1)C(N)=O` [Compound R3113, [mXylyl(3,11)]Ac-Y-Nvl-C-Phg-T-azaTrp-E-Y-(N-Me)S-H-C-Nvl-NH2] (Ac-Y[Nva]C[Phg]T[Trp(7-aza)]EY[NMeS]HC[Nva]-NH2; linker 3-11 via mXylylene): under setting [1], the pIC50 was below 5.30.
On the same count and under the same terms, with `CCC[C@H](NC(C)=O)C(=O)N[C@H]1CSCc2cccc(c2)CSC[C@@H](C(=O)N[C@@H](C)C(N)=O)NC(=O)[C@H](Cc2c[nH]cn2)NC(=O)[C@H](CO)N(C)C(=O)[C@H](Cc2ccc(O)cc2)NC(=O)[C@H](CCC(=O)O)NC(=O)[C@H](Cc2c[nH]c3ncccc23)NC(=O)[C@H]([C@@H](C)O)NC(=O)[C@H](c2ccccc2)NC1=O` [Compound R3039, [mXylyl(2,10)]Ac-Nvl-C-Phg-T-azaTrp-E-Y-(N-Me)S-H-C-A-NH2] (Ac-[Nva]C[Phg]T[Trp(7-aza)]EY[NMeS]HCA-NH2; linker 2-10 via mXylylene) the figure was 6.62; with `CCCCCCCCCCCC(=O)NCCCC[C@H](NC(=O)[C@@H](NC(=O)[C@@H]1CCCN1C(=O)[C@H](Cc1ccc(O)cc1)NC(=O)[C@H](CCC(=O)O)NC(=O)[C@H](Cc1c[nH]c2ncccc12)NC(=O)[C@H](Cc1ccc(O)cc1)NC(=O)[C@@H](NC(=O)[C@H](CC(=O)O)NC(=O)[C@@H]1CSCc2cccc(c2)CSC[C@H](NC(C)=O)C(=O)N[C@@H](C)C(=O)N[C@@H](CCC(=O)O)C(=O)N[C@@H](CCCNC(=N)N)C(=O)N[C@@H](Cc2ccccc2)C(=O)N1)C(C)(C)C)c1ccccc1)C(N)=O` [Compound R3164, [mXylyl(1,6)]Ac-C-A-E-R-F-C-D-Tbg-Y-azaTrp-E-Y-P-Phg-(Lys-C12)-NH2], 7.44; with `CC(=O)N[C@H]1CSCc2cccc(c2)CSC[C@@H](C(=O)N[C@@H](CC(=O)O)C(=O)N[C@H](C(=O)N[C@@H](Cc2ccc(O)cc2)C(=O)N[C@@H](Cc2c[nH]c3ccccc23)C(=O)N[C@@H](CCC(=O)O)C(=O)N[C@@H](Cc2ccc(O)cc2)C(=O)N2CCC[C@H]2C(N)=O)C(C)(C)C)NC(=O)[C@H](Cc2ccccc2)NC(=O)[C@H](CCCNC(=N)N)NC(=O)[C@H](CCC(=O)O)NC(=O)[C@H](C(C)C)NC1=O` [Compound R3143, [mXyly1(1,6)]Ac-C-V-E-R-F-C-D-Tbg-Y-W-E-Y-P-NH2] (Ac-CVERFCD[Tle]YWEYP-NH2; linker 1-6 via mXylylene), 7.73.
Same read-out and setting: with `CCC[C@H](NC(C)=O)C(=O)N[C@H]1CSCc2cccc(c2)CSC[C@@H](C(N)=O)NC(=O)[C@H](CCC)NC(=O)[C@H](c2ccccc2)NC(=O)[C@@H]2CCCN2C(=O)[C@H](Cc2ccc(O)cc2)NC(=O)[C@H](CCC(=O)O)NC(=O)[C@H](Cc2c[nH]c3ncccc23)NC(=O)[C@H](Cc2ccc(O)cc2)NC(=O)[C@H](C(C)(C)C)NC(=O)[C@H](CC(N)=O)NC(=O)[C@H](CCC(=O)O)NC(=O)[C@H](Cc2ccc(O)cc2)NC1=O` [Compound R3019, [mXylyl(2,14)]Ac-Nvl-C-Y-E-N-Tbg-Y-azaTrp-E-Y-P-Phg-Nvl-C-NH2] (Ac-[Nva]CYEN[Tle]Y[Trp(7-aza)]EYP[Phg][Nva]C-NH2; linker 2-14 via mXylylene) the figure was 5.88; with `CCC[C@H](NC(=O)[C@@H]1CSCc2cccc(c2)CSC[C@H](NC(=O)[C@H](CCC)NC(C)=O)C(=O)N[C@@H](c2ccccc2)C(=O)N[C@@H]([C@@H](C)O)C(=O)N[C@@H](Cc2c[nH]c3ncccc23)C(=O)N[C@@H](C)C(=O)N[C@@H](Cc2ccc(O)cc2)C(=O)N(C)[C@@H](CO)C(=O)N[C@@H](Cc2c[nH]cn2)C(=O)N1)C(N)=O` [Compound R3035, [mXylv1(2,10)]Ac-Nvl-C-Phg-T-azaTrp-A-Y-(N-Me)S-H-C-Nvl-NH2] (Ac-[Nva]C[Phg]T[Trp(7-aza)]AY[NMeS]HC[Nva]-NH2; linker 2-10 via mXylylene), below 4.30.
Take `CCC[C@H](NC(=O)[C@@H]1CSCc2cccc(c2)CSC[C@H](NC(=O)[C@H](CCC)NC(C)=O)C(=O)N[C@@H](c2ccccc2)C(=O)N[C@@H]([C@@H](C)O)C(=O)N[C@@H](Cc2c[nH]c3ccccc23)C(=O)N[C@@H](Cc2nnn[nH]2)C(=O)N[C@@H](Cc2ccc(O)cc2)C(=O)N(C)[C@@H](CO)C(=O)N[C@@H](Cc2c[nH]cn2)C(=O)N1)C(N)=O` [Compound R3131, [mXylyl(2,10)]Ac-Nvl-C-Phg-T-W-Asp(T)-Y-(N-Me)S-H-C-Nvl-NH2] (Ac-[Nva]C[Phg]TW[Ala(1H-tetrazol-5-yl)]Y[NMeS]HC[Nva]-NH2; linker 2-10 via mXylylene): the pIC50 is below 4.00 (7-azatryptophan variant polypeptides of R3008, inhibition of red blood cell lysis) and below 4.00 under setting [1].
Turning to `CSCC[C@H](N)C(=O)N[C@H]1CSCc2cccc(c2)CSC[C@@H](C(=O)N[C@@H](CC(=O)O)C(=O)N[C@H](C(N)=O)C(C)C)NC(=O)[C@H](Cc2ccccc2)NC(=O)[C@H](CCCNC(=N)N)NC(=O)[C@H](CCC(=O)O)NC(=O)[C@H](C(C)C)NC1=O` [Compound R3046, [mXylyl(2,7)]M-C-V-E-R-F-C-D-V-NH2] (H-MCVERFCDV-NH2; linker 2-7 via mXylylene), the pIC50 reads like this: under setting [2], below 4.00; under setting [1], below 4.00.
For the compound `CCC[C@H](NC(C)=O)C(=O)N[C@@H](CS)C(=O)N[C@@H](Cc1ccc(O)cc1)C(=O)N[C@@H](CCC(=O)O)C(=O)N[C@@H](CC(N)=O)C(=O)N[C@H](C(=O)N[C@@H](Cc1ccc(O)cc1)C(=O)N[C@@H](Cc1c[nH]c2ncccc12)C(=O)N[C@@H](CCC(=O)O)C(=O)N[C@@H](Cc1ccc(O)cc1)C(=O)N(C)CC(=O)N[C@@H](CCC)C(=O)N(C)[C@@H](CO)C(N)=O)C(C)(C)C` [Compound R3001, Ac-Nvl-C-Y-E-N-Tbg-Y-azaTrp-E-Y-(N-Me)G-Nvl-(N-Me)S-NH2] (Ac-[Nva]CYEN[Tle]Y[Trp(7-aza)]EY[Sar][Nva][NMeS]-NH2), the pIC50 under setting [1] was 7.17.
